The numbers were not newly measured in patent EP2742940A1, “Salts of aza-bicyclo-di-aryl ethers for adminstration once daily, twice daily or thrice daily” (IP Gesellschaft für Management mbH, priority 2012, dated 2014), which cites them from elsewhere.

“And” between values parts separate entries of the source, which are not always exact repeats. Identical values can stand only once. Like-named read-outs stand apart in the source and are kept apart here.

One may read the GI50 as the concentration that inhibits growth by half. As a reminder, the EC50 is the concentration that produces a half-maximal response. For orientation: IC50 means the concentration at which inhibition is half-maximal. The Cmax is the peak of the concentration-time curve. Usually Tmax stands for the time at which the peak concentration occurs.

Details of data set [1]: Initial water content / Hygroscopy @ 85%RH: unit not given here. The following applies: for Initial water content: Example 7 comparison of salt forms; for moisture gain: at 85% RH.
The conditions of data set [2]: rat; for PK-parameters compared to Example 1: one-way analysis of variance; for %F: p.o. (3 mg/kg).
Another data set has as its system A375 cells. Conditions: XTT, three days after compound addition. (In general: Formazan colour is commonly taken as a measure of viable cells.)
For the next data set, the system named is P-Erk. The following applies: A375 cells, P-Erk In-Cell-Western, 3 hrs treatment.
The next data set concerns DUSP6. The following applies: A375 tumor bearing athymic-nude rats, single oral dose, at 12h and 24h (p=0.003 and p=0.006), two-way analysis of variance.
The test system of a further data set is BRAF-MEK-ERK cascade. Conditions: BRAF-MEK-ERK cascade assay, mean ± SEM, n=3.
For data set [3] the following is noted: at 65°C.
The conditions of data set [4]: dogs (N=3), 1.4 µmol/kg p.o.
Setting [5] is: male Wistar rats, oral 10 mg/kg, Mean All (n=8).
[6] abbreviates: male Wistar rats, oral 10 mg/kg, Median [range].
Where [7] appears, read: male Wistar rats, oral 10 mg/kg, individual rats 01-08, listed as mono-fumarate, 10 mg/kg.

On to `Cc1ccc(-c2ccc(O[C@H]3CN4CCC3CC4)cn2)cc1.Cl` [Hydrochloride, Form A, chloride salt (hydrochloride) of (R)-3-(6-(4-methylphenyl)-pyridin-3-yloxy)-1-aza-bicyclo[2.2.2]octane], for which, in data set [1], the “Hygroscopy @ 85%RH” value is reported as “∼5”, the Initial water content entry is given as “∼5” and the moisture gain result is given as “about 5%”.
Regarding `O=S(=O)(Nc1c(Nc2ccc(I)cc2F)c(F)c(F)c2ccoc12)C1(C[C@@H](O)CO)CC1` [Example 1B, (R)-N-(4,5-difluoro-6-((2-fluoro-4-iodophenyl)amino)benzofuran-7-yl)-1-(2,3-dihydroxypropyl)cyclopropane-1-sulfonamide], in [2], the “PK-parameters compared to Example 1” value is on record as “improved PK-parameters” and the “%F” value was 126%. Also, the GI50 with A375 cells was 29.6 nM. In addition, the EC50 in the data set on P-Erk is 15.6 nM.
`Cc1ccc(-c2ccc(O[C@H]3CN4CCC3CC4)cn2)cc1.O=P(O)(O)O` [Phosphate, Form A, phosphate salt of (R)-3-(6-(4-methylphenyl)-pyridin-3-yloxy)-1-aza-bicyclo[2.2.2]octane]: in data set [1], the “Hygroscopy @ 85%RH” value was 0.2, the Initial water content result is “∼0.5” and the moisture gain is reported as 0.2%.
In the case of `O=S(=O)(Nc1c(Nc2ccc(I)cc2F)c(F)c(F)c2ccoc12)C1(C[C@H](O)CO)CC1` [Example 1A, (S)-N-(4,5-difluoro-6-((2-fluoro-4-iodophenyl)amino)benzofuran-7-yl)-1-(2,3-dihydroxypropyl)cyclopropane-1-sulfonamide], in [2], the “PK-parameters compared to Example 1” value is “improved PK-parameters” and the “%F” value is recorded as 132%. Further, the 50% growth inhibitory concentration (GI50) with A375 cells was 13.4 nM. The “lowering levels of DUSP-6 in tumor” value in the data set on DUSP6 is reported as “significantly more effective than Example- IB”. For the same molecule, the 50% effective concentration (EC50) in the data set on P-Erk was 6.4 nM. Further, in the data set on BRAF-MEK-ERK cascade, the 50% inhibitory concentration (IC50) is 2 ± 0.25 nM.
Take `Cc1cn(-c2cc(NC(=O)c3ccc(C)c(Nc4nccc(-c5cccnc5)n4)c3)cc(C(F)(F)F)c2)cn1` [nilotinib, 4-methyl-3-[[4-(3-pyridinyl)-2-pyrimidinyl]amino]-N-[5-(4-methyl-1 H-imidazol-1-yl)-3-(trifluoromethyl)phenyl] benzamide]: in data set [3], the “solubility in lactic acid” value was more than 600 mg/mL.
`Cc1ccc(-c2ccc(O[C@H]3CN4CCC3CC4)cn2)cc1.O=C(O)/C=C\C(=O)O` [Maleate, maleate salt of (R)-3-(6-(4-methylphenyl)-pyridin-3-yloxy)-1-aza-bicyclo[2.2.2]octane]: in [1], the “Hygroscopy @ 85%RH” value is reported as 0.3, the Initial water content was less than 0.1 and the moisture gain is listed as 0.3%.
In the case of `Cc1ccc(-c2ccc(O[C@H]3CN4CCC3CC4)cn2)cc1.O=C(O)CCC(=O)O` [Succinate, succinate salt of (R)-3-(6-(4-methylphenyl)-pyridin-3-yloxy)-1-aza-bicyclo[2.2.2]octane], in data set [1], the “Hygroscopy @ 85%RH” value was 0.3, the Initial water content result is on record as “∼4.5” and the moisture gain was 0.3%.
For `O=S(=O)(Nc1c(Nc2ccc(I)cc2F)c(F)c(F)c2ccoc12)C1(CC(O)CO)CC1` (racemic) [Example 1, N-(4,5-difluoro-6-((2-fluoro-4-iodophenyl)amino)benzofuran-7-yl)-1-(2,3-dihydroxypropyl)cyclopropane-1-sulfonamide], the “%F” value in data set [2] is given as 87%. Besides, in the data set on A375 cells, the GI50 was 17.6 nM. Besides, in the data set on P-Erk, the EC50 is 12.2 nM. Moreover, the IC50 in the data set with BRAF-MEK-ERK cascade was 2.1 ± 0.58 nM.
With `Cc1ccc(-c2ccc(O[C@H]3CN4CCC3CC4)cn2)cc1.O=C(O)/C=C/C(=O)O` [Compound B, fumarate salt of (R)-3-(6-(4-methylphenyl)-pyridin-3-yloxy)-1-aza-bicyclo[2.2.2]octane], in [1], the “Hygroscopy @ 85%RH” value is 0.5, the Initial water content is recorded as less than 0.5 and the moisture gain was 0.5%. Also, the “Plasma (pmoles/ml±SD)” value in data set [4] (0.5 hour) was 49.4 ± 21.9 pmol/mL. Moreover, in [4] (1 hour), the “Plasma (pmoles/ml±SD)” value was 67.6 ± 22.6 pmol/mL. Also, the “Plasma (pmoles/ml±SD)” value in data set [4] (2 hour) is 75.2 ± 36.8 pmol/mL. Besides, the “Plasma (pmoles/ml±SD)” value in data set [4] (4 hour) was 27.5 ± 13.3 pmol/mL. Also, in data set [4] (8 hour), the “Plasma (pmoles/ml±SD)” value is 8.1 ± 3.0 pmol/mL. In data set [4] (24 hour), the “Plasma (pmoles/ml±SD)” value was 0.8 ± 0.7 pmol/mL. For the same molecule, the “Plasma (pmoles/ml±SD)” value in data set [4] (fumarate salt form, 0.25 hour) was 14.7 ± 1.1 pmol/mL. Besides, where the note is “male Wistar rats, oral 10 mg/kg, Mean All”, the “T1/2” value was 3.76 h. Under setting [5], the “AUClast” value was 249 ng·h/mL, the “AUClast/Dose (h·ng/mL)/(mg/kg)” value is 25.4 (h·ng/mL)/(mg/kg), the maximum concentration (Cmax) is recorded as 161 ng/mL and the “Cmax/Dose (ng/mL)/(mg/kg)” value is 16.5 (ng/mL)/(mg/kg). In addition, under setting [5], the “Concentration in plasma, Time (h) 0.25” value was 149 ng/mL; the “Concentration in plasma, Time (h) 0.5” value was 132 ng/mL; the “Concentration in plasma, Time (h) 1” value was 77.4 ng/mL; the “Concentration in plasma, Time (h) 2” value was 38.9 ng/mL. For the same molecule, under setting [5], the “Concentration in plasma, Time (h) 3” value is 19.5 ng/mL; the “Concentration in plasma, Time (h) 4” value was 10.6 ng/mL; the “Concentration in plasma, Time (h) 6” value is 5.10 ng/mL; the “Concentration in plasma, Time (h) 8” value is 2.54 ng/mL. For the same molecule, the “Concentration in plasma, Time (h) 24” value under setting [5] is 0320 ng/mL. Further, under setting [6], the “Tlast” value is on record as 24.0 h and the time to peak (Tmax) is 0.25 h. Moreover, under setting [7], the “AUClast” value was 202 ng·h/mL and 259 ng·h/mL and 212 ng·h/mL and 188 ng·h/mL and 269 ng·h/mL and 292 ng·h/mL and 298 ng·h/mL and 272 ng·h/mL; the “AUClast/Dose (h·ng/mL)/(mg/kg)” value is 20.8 (h·ng/mL)/(mg/kg) and 26.3 (h·ng/mL)/(mg/kg) and 21.4 (h·ng/mL)/(mg/kg) and 192 (h·ng/mL)/(mg/kg) and 28.0 (h·ng/mL)/(mg/kg) and 30.1 (h·ng/mL)/(mg/kg) and 29.6 (h·ng/mL)/(mg/kg) and 27.9 (h·ng/mL)/(mg/kg); the “Cmax” value is 167 ng/mL and 162 ng/mL and 78.4 ng/mL and 99.7 ng/mL and 242 ng/mL and 204 ng/mL and 184 ng/mL and 153 ng/mL; the “Cmax/Dose (ng/mL)/(mg/kg)” value was 17.2 (ng/mL)/(mg/kg) and 16.4 (ng/mL)/(mg/kg) and 7.88 (ng/mL)/(mg/kg) and 102 (ng/mL)/(mg/kg) and 25.2 (ng/mL)/(mg/kg) and 21.1 (ng/mL)/(mg/kg) and 18.3 (ng/mL)/(mg/kg) and 15.7 (ng/mL)/(mg/kg). Under setting [7], the “Concentration in plasma, Time (h) 0.25” value is 167 ng/mL and 162 ng/mL and 77.8 ng/mL and 890 ng/mL and 242 ng/mL and 204 ng/mL and 93.3 ng/mL and 153 ng/mL; the “Concentration in plasma, Time (h) 0.5” value is 104 ng/mL and 130 ng/mL and 784 ng/mL and 99.7 ng/mL and 143 ng/mL and 179 ng/mL and 184 ng/mL and 138 ng/mL; the “Concentration in plasma, Time (h) 1” value is 67.1 ng/mL and 88.8 ng/mL and 41.3 ng/mL and 62.8 ng/mL and 83.2 ng/mL and 80.8 ng/mL and 101 ng/mL and 94.2 ng/mL; the “Concentration in plasma, Time (h) 2” value is 27.4 ng/mL and 39.2 ng/mL and 378 ng/mL and 24.6 ng/mL and 47.1 ng/mL and 37.6 ng/mL and 54.8 ng/mL and 42.6 ng/mL. Under setting [7], the “Concentration in plasma, Time (h) 3” value was 12.4 ng/mL and 17.7 ng/mL and 25.3 ng/mL and 11.7 ng/mL and 19.6 ng/mL and 20.6 ng/mL and 25.1 ng/mL and 23.2 ng/mL; the “Concentration in plasma, Time (h) 4” value was 906 ng/mL and 10.6 ng/mL and 13.3 ng/mL and 5.90 ng/mL and 9.71 ng/mL and 11.8 ng/mL and 13.0 ng/mL and 11.1 ng/mL; the “Concentration in plasma, Time (h) 6” value is 749 ng/mL and 3.47 ng/mL and 7.63 ng/mL and 5.79 ng/mL and 4.29 ng/mL and 4.24 ng/mL and 4.05 ng/mL and 3.87 ng/mL; the “Concentration in plasma, Time (h) 8” value is 291 ng/mL and 2.35 ng/mL and 3.62 ng/mL and 2.62 ng/mL and 2.46 ng/mL and 1.94 ng/mL and 238 ng/mL and 207 ng/mL. For the same molecule, under setting [7], the “T1/2” value is 2.44 h and 5.02 h and 3.62 h and 3.71 h and 2.02 h and 3.97 h and 5.51 h; the “Tlast” value was 8.0 h (2×) and 24.0 h (6×); the “Tmax” value was 0.25 h (3×) and 025 h (2×) and 0.50 h (3×). The AUClast (rats, acute oral dosing of 10 mg/kg) was 249+-42 h ng/ml. Where the note is “rats, acute oral dosing of 10 mg/kg (relative to free form)”, the “Cmax of the free form in plasma” value was 161+-53 ng/ml.
For `Cc1ccc(-c2ccc(O[C@H]3CN4CCC3CC4)cn2)cc1.O=C(O)CC(=O)O` [Malonate, malonate salt of (R)-3-(6-(4-methylphenyl)-pyridin-3-yloxy)-1-aza-bicyclo[2.2.2]octane], in data set [1], the “Hygroscopy @ 85%RH” value is 1.3, the Initial water content entry was “∼0” and the moisture gain was 1.3%.
